For 24 molecules, TGI and GI50 results are on record in PubChem BioAssay (NCI).

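Each compound was tested at five concentrations against cells in 96-well plates for 48 hours. Here, GI50 denotes the concentration required for 50% inhibition of growth. Definition used: TGI = concentration required for complete inhibition of growth.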

Some test systems named below: MDA-MB-231 breast; BT-549 breast; NCI/ADR-RES ovarian; MDA-N; M19-MEL melanoma; DMS 114 small cell lung.
What all share (test): DTP human tumour cell line panel, 48 h

A word on the TGI: it is the concentration at which net growth stops. A high value points to less potent growth arrest. On to `CCOP(=O)(Nc1ccc2oc(=O)c3ccccc3c2c1)OCC`, for which the TGI in the experiment on MDA-MB-231 breast, in the experiment on BT-549 breast, with NCI/ADR-RES ovarian and in the experiment on MDA-N was greater than 100 µM each time.

Regarding `O=C1CN(/N=C/c2ccc(-c3ccc(F)cc3)o2)C(=O)N1`, the values for the TGI with MDA-MB-231 breast, in the experiment on NCI/ADR-RES ovarian and in the experiment on MDA-N were greater than 100 µM, greater than 100 µM and 38.6 µM, respectively.

For orientation: GI50 means the concentration giving 50% growth inhibition. As to `O=C(Cc1csc2nc(-c3ccc(Br)cc3)cn12)N/N=C/c1ccc(O)cc1`, the GI50 with MDA-MB-231 breast is 10.4 µM; in the experiment on BT-549 breast, 13.4 µM; in the experiment with NCI/ADR-RES ovarian, 21.2 µM. Also, the total growth inhibition concentration (TGI) with MDA-MB-231 breast is 43.2 µM; with BT-549 breast it was 56.5 µM; with NCI/ADR-RES ovarian it was 61.1 µM.

For the molecule `OCNCCNc1nc2ccccc2c2[nH]c3ccccc3c12`, the values for the GI50 in the experiment on MDA-MB-231 breast, with BT-549 breast and in the experiment with NCI/ADR-RES ovarian were 1.24 µM, 1.15 µM and 7.17 µM, respectively. For the same molecule, the TGI in the experiment on MDA-MB-231 breast was 3.77 µM; with BT-549 breast, 3.48 µM; in the experiment on NCI/ADR-RES ovarian it was 22.6 µM.

With `O=C(Nc1ccccc1C(=O)N/N=C(\c1ccccc1)c1ccccn1)c1ccc(F)cc1`, the GI50 was 0.705 µM in the experiment with MDA-MB-231 breast, 0.436 µM in the experiment with BT-549 breast and 0.105 µM with NCI/ADR-RES ovarian. Besides, the total growth inhibition concentration (TGI) with MDA-MB-231 breast is greater than 100 µM; in the experiment on BT-549 breast, greater than 26.7 µM; in the experiment on NCI/ADR-RES ovarian, greater than 19.7 µM.

As to `Nc1ccc2c(c1)c(N)nn2C(=O)Nc1ccc(Cc2ccccc2)cc1`, the GI50 with MDA-MB-231 breast is 7.74 µM; in the experiment on BT-549 breast, 14.6 µM; in the experiment on NCI/ADR-RES ovarian, 17.4 µM. Besides, the concentration for total growth inhibition (TGI) with MDA-MB-231 breast came to 22.7 µM; in the experiment with BT-549 breast, 33.5 µM; in the experiment with NCI/ADR-RES ovarian, 75.1 µM.

Take `CC1CC2(C)CC(=O)C1C1C(=O)N(CCN3CCCCC3)C(=O)C12` (centres undefined): the GI50 in the experiment with MDA-MB-231 breast, with BT-549 breast and in the experiment with NCI/ADR-RES ovarian was greater than 100 µM each time. Also, the TGI in the experiment with MDA-MB-231 breast, in the experiment with BT-549 breast and in the experiment on NCI/ADR-RES ovarian was greater than 100 µM throughout.

Consider `Cc1cc(Cl)ccc1NS(=O)(=O)c1ccc(-c2cnc(C3CC3)o2)cc1`, for which the GI50 with MDA-MB-231 breast was 0.94 µM; with BT-549 breast, 1.32 µM; in the experiment with NCI/ADR-RES ovarian it was 0.178 µM. In addition, the TGI in the experiment with MDA-MB-231 breast came out at 20 µM; with BT-549 breast it was 15.5 µM; in the experiment with NCI/ADR-RES ovarian, 13 µM.

Regarding `Oc1ccc(Cl)cc1Cc1cc(Cl)ccc1O`, the GI50 with MDA-MB-231 breast was 1.65 µM; with BT-549 breast, 2.6 µM; in the experiment with NCI/ADR-RES ovarian it was 2.19 µM. Further, the concentration for total growth inhibition (TGI) in the experiment with MDA-MB-231 breast was found to be 5.01 µM; in the experiment with BT-549 breast, 8.76 µM; in the experiment on NCI/ADR-RES ovarian, 6.32 µM.

`COc1cc([N+](=O)[O-])c2ncccc2c1[N+](=O)[O-]`: the values for the GI50 with MDA-MB-231 breast, in the experiment with BT-549 breast and in the experiment on NCI/ADR-RES ovarian were 11.6 µM, 7.62 µM and 2.8 µM, respectively. Moreover, the figures for the TGI with MDA-MB-231 breast, in the experiment with BT-549 breast and in the experiment on NCI/ADR-RES ovarian were 24.8 µM, 20.2 µM and 10.8 µM, respectively.

For `CC(=O)Oc1ccc2c(c1)CC[C@@H]1C2CC[C@]2(C)C(=O)NC(=O)CC12` (some centres undefined), the TGI in the experiment on MDA-MB-231 breast, with BT-549 breast and in the experiment with MDA-N was greater than 100 µM each time.

Regarding `Cc1ccc(C(C)C)cc1NC(=O)Nc1ccc([N+](=O)[O-])cc1`, the GI50 with MDA-MB-231 breast was 1.52 µM; in the experiment on BT-549 breast, 2.13 µM; in the experiment with NCI/ADR-RES ovarian, 2.61 µM. In addition, the TGI in the experiment on MDA-MB-231 breast turned out to be 3.65 µM; in the experiment with BT-549 breast it was 8.21 µM; in the experiment on NCI/ADR-RES ovarian, 7.7 µM.

With `COc1cnc2cc(C(=O)O)c3ccccc3c2c1`, the TGI with MDA-MB-231 breast, in the experiment on NCI/ADR-RES ovarian and with MDA-N was greater than 100 µM in each case.

As to `CN1CCN(c2nc(-c3ccncc3)nc3sc4c(c23)CCCCCC4)CC1`, the GI50 with MDA-MB-231 breast was 4.26 µM; in the experiment with BT-549 breast, 6.35 µM; in the experiment with NCI/ADR-RES ovarian it was 8.17 µM. Moreover, the TGI with MDA-MB-231 breast was 18.7 µM; in the experiment with BT-549 breast, 19.9 µM; with NCI/ADR-RES ovarian, 24.5 µM.

For the molecule `C/C=C1\C(=O)OC2CCN3CCC(COC(=O)C(C)(O)C(C)C1O)C23` (centres undefined), the TGI in the experiment on MDA-MB-231 breast, in the experiment on BT-549 breast, in the experiment with NCI/ADR-RES ovarian and in the experiment on MDA-N was greater than 100 µM in each case.

As to `COC(OC)c1cc2c(cc1C(=O)[C@@]13CCC[C@@H]1NC(=O)O3)OCO2`, the concentration for total growth inhibition (TGI) in the experiment on M19-MEL melanoma and in the experiment on DMS 114 small cell lung was greater than 100 µM each time.

As for `Oc1[nH]c2cc(Cl)ccc2c1/C=c1/ccc2c(c1)N=C(c1cc(F)cc(F)c1)N=2`, the GI50 in the experiment on MDA-MB-231 breast is 2.78 µM; in the experiment with BT-549 breast, 2.1 µM; in the experiment on NCI/ADR-RES ovarian it was 2.03 µM. Besides, the TGI with MDA-MB-231 breast turned out to be 12.3 µM; in the experiment on BT-549 breast, 10 µM; in the experiment on NCI/ADR-RES ovarian, 6.75 µM.

For `CC(=O)OC1CC2C(=O)C(=O)C1(C)C2(C)C` (centres undefined), the TGI with MDA-MB-231 breast, with BT-549 breast, in the experiment on NCI/ADR-RES ovarian and in the experiment on MDA-N was greater than 100 µM in each case.

As for `Cc1nc(N)nc2ccccc12`, the total growth inhibition concentration (TGI) with MDA-MB-231 breast, in the experiment with BT-549 breast, with NCI/ADR-RES ovarian and with MDA-N was greater than 100 µM in each case.

In the case of `CSC1=NCC2(S1)c1ccccc1N(C(=O)OC(C)(C)C)C2N1CCCCC1` (centres undefined), the GI50 with MDA-MB-231 breast is 41.8 µM; in the experiment with BT-549 breast it was greater than 100 µM; in the experiment on NCI/ADR-RES ovarian, greater than 100 µM. The concentration for total growth inhibition (TGI) in the experiment on MDA-MB-231 breast, in the experiment with BT-549 breast and in the experiment with NCI/ADR-RES ovarian was greater than 100 µM throughout.

Regarding `CC1(C)CC[C@]2(C(N)=O)CC[C@]3(C)C(=CC[C@@H]4[C@@]5(C)C/C(=C/c6ccncc6)C(=O)C(C)(C)[C@@H]5CC[C@]43C)[C@@H]2C1`, in the experiment on MDA-MB-231 breast, the GI50 is 1.86 µM and the TGI worked out at 4.15 µM. In the experiment with NCI/ADR-RES ovarian, the GI50 was 2.42 µM and the TGI turned out to be 6.99 µM.

For the molecule `CCN(CC)CCN(C(=O)C(C)(C)C)c1ccccc1N`, the TGI with BT-549 breast, in the experiment with NCI/ADR-RES ovarian and with MDA-N was greater than 100 µM in each case.

`CC1OC(OC2CCC3(C=O)C4CCC5(C)C(C6=CC(=O)OC6)CCC5(O)C4CCC3(O)C2)C(O)C(O)C1O` (centres undefined): the TGI came out at 0.0025 µM in the experiment on MDA-MB-231 breast, 4.44e-05 µM in the experiment on BT-549 breast, 6.17e-05 µM in the experiment with NCI/ADR-RES ovarian and 7.94e-05 µM in the experiment with MDA-N.

As to `CC(NC(=O)c1ccccc1)(C(=O)O)C(=O)O`, the TGI in the experiment with MDA-MB-231 breast, in the experiment with BT-549 breast, with NCI/ADR-RES ovarian and with MDA-N was greater than 100 µM in each case.
